Read-outs that look alike come from different tables or passages of the source.
Assays:
[1] = tested on: hippocampal transcriptome; assay: RNA-Seq of hippocampus after acute THC versus vehicle; format: in vivo, mouse; conditions: for number of transcripts differentially expressed in the HIPP: 2 hours, 5% FDR
gene expression = conditions: microarray, out of 24,500 possible genes, acute THC; cited from earlier work
[2] = tested on: CD1 female mouse brain lipidome; assay: Targeted brain lipidomics; format: in vivo; conditions: for magnitude class of change in PGE2 and PGF2α, HIPP: p < 0.05
novel object recognition = conditions: 3 mg/kg THC, 24 hours after dosing; cited from earlier work
spatial working memory = conditions: male C57 mice, 3 mg/kg, tested 30 minutes later; cited from earlier work
[3] = PND 50, 2 hours after 3 mg/kg THC i.p.
[4] = adult, 2 hours after 3 mg/kg THC i.p.
[5] = PND 35, 2 hours after 3 mg/kg THC i.p.
[6] = adult, THC vs vehicle, significant

11-OH-THC
rank of HIPP levels relative to other brain regions [3]: highest
rank of HIPP levels relative to other brain regions [4]: 5th

(±)-11-nor-9-carboxyTHC
rank of HIPP levels relative to other brain regions [5]: highest

CCCCCc1cc(O)c2c(c1)OC(C)(C)[C@@H]1CCC(C)=C[C@@H]21 [THC, Δ^9-tetrahydrocannabinol]
effect on FKBP5 message ([1]; HIPP of both age groups, 3 mg/kg, larger magnitude in adult): upregulated
effect on Cdkn1a transcript ([1]; HIPP of mice from both age groups): upregulated
number of genes affected in the same direction regardless of age ([1]; HIPP, PND 35 and adult): 31
number of shared transcripts significantly downregulated ([1]; HIPP, PND 35 and adult): 11
number of transcripts downregulated in the HIPP ([1]; PND 35): 48
number of transcripts upregulated in the HIPP ([1]; PND 35): 41
number of transcripts differentially expressed in the HIPP ([1]; PND 35, 3 mg/kg THC): 89
log2 fold change of Plekhf1 (largest upregulation) ([1]; PND 35 HIPP): 0.84
log2 fold change of kdr (most robust downregulation) ([1]; PND 35 HIPP): −0.73
number of transcript changes unique to this age group ([1]; PND 35 HIPP): 58
number of uniquely changed transcripts downregulated ([1]; PND 35 HIPP): 37
number of decreases in transcript expression in the HIPP ([1]; adult): 80
number of increases in transcript expression in the HIPP ([1]; adult): 109
log2 fold change of Plekhf1 (largest upregulation) ([1]; adult HIPP): 1.36
log2 fold change of cldn5 (most robust downregulation) ([1]; adult HIPP): −0.80
number of transcript changes unique to this age group ([1]; adult HIPP): 158
number of unique transcript changes that were decreases ([1]; adult HIPP): 69
number of unique transcript changes that were increases ([1]; adult HIPP): 89
effect on mRNA encoding the receptor for VEGF, Kdr ([1]; adult and PND 35 HIPP): significantly lowered
number of transcripts differentially expressed in the HIPP ([1]; adult, 3 mg/kg THC): 189
number of genes with altered expression (gene expression): 28
change in 2-AG in HYP ([2]; PND 35): decrease
change in N-oleoyl glycine in HYP ([2]; PND 35): increase
effect on AEA levels ([2]; PND 35): unaffected
number of brain areas with reduced 2-AG levels ([2]; PND 35): 2
number of decreases in lipid concentration, all 8 brain areas ([2]; PND 35): 10
number of increases in lipid concentration, all 8 brain areas ([2]; PND 35): 23
number of lipids decreased in HIPP ([2]; PND 35): 1
number of lipids increased in HIPP ([2]; PND 35): 6
magnitude of change of PGE2 in the HIPP (THC mean divided by vehicle mean) ([2]; PND 35, 3 mg/kg i.p., 2 hours): 1.13
magnitude class of change in PGE2 and PGF2α, HIPP ([2]; PND 35, THC vs vehicle): 1 up arrow
magnitude class of change in A-Taur, THAL ([2]; PND 35, THC vs vehicle, significant): 1 up arrow
number of significant changes in lipid concentrations across all 8 brain areas ([2]; PND 35, out of 656 possible changes): 33
average level of PGE2 in the HIPP ([2]; PND 35 THC mice, 3 mg/kg i.p., 2 hours): 6.68×10^−10 moles per gram
change in levels of PGE2 and PGF2α in the HIPP ([2]; PND 35 mouse): increase
change in AEA and its structural analogs the NAEs in STR ([2]; PND 50): significantly increased
change in PGF2α in HYP (only change in that region) ([2]; PND 50): increase
number of brain regions with reduced 2-AG levels ([2]; PND 50): 4
number of brain regions with reduced AEA levels ([2]; PND 50): 2
number of decreases in lipid concentration, all 8 brain areas ([2]; PND 50): 28
number of increases in lipid concentration, all 8 brain areas ([2]; PND 50): 30
number of lipids decreased in CER ([2]; PND 50): 8
number of lipids increased in CER ([2]; PND 50): 5
number of lipids significantly modified, all 8 brain areas ([2]; PND 50): 58
change in levels of PGE2 and PGF2α in the HIPP ([2]; PND 50 mouse): no change
change in NAEs in all brain areas except the STR and CTX ([2]; adult): significantly decreased
change in levels of PGE2 and PGF2α in the HIPP ([2]; adult): decrease
number of brain regions with reduced 2-AG levels ([2]; adult): 4
number of brain regions with reduced AEA levels ([2]; adult): 6
number of changes in lipid levels in CER (all decreases) ([2]; adult): 14
number of decreases in lipid concentration, all 8 brain regions ([2]; adult): 99
number of increases in lipid concentration, all 8 brain regions ([2]; adult): 17
number of lipids affected in STR ([2]; adult): 3
number of lipids altered in STEM ([2]; adult): 28
number of lipids changing in concentration across the 8 brain regions ([2]; adult): 116
number of lipids decreased in STEM ([2]; adult): 24
number of lipids decreased in STR ([2]; adult): 2
number of lipids increased in STEM ([2]; adult): 4
number of lipids increased in STR ([2]; adult): 1
mean level of AEA in the HIPP ([2]; adult THC mice, 3 mg/kg i.p., 2 hours): 4.76×10^−11 moles per gram
AEA in the HIPP, THC mean divided by vehicle mean ([2]; adult, 3 mg/kg i.p., 2 hours): 0.87
fold decrease of AEA in the HIPP (reciprocal of THC/vehicle) ([2]; adult, 3 mg/kg i.p., 2 hours): 1.15
magnitude class of change in 2-OG, MID ([2]; adult, THC vs vehicle): 2 down arrows
magnitude class of change in PGE2 and PGF2α, HIPP ([2]; adult, THC vs vehicle): 1 down arrow
magnitude class of change in AEA, THAL [2, 6]: 1 down arrow
magnitude class of change in SEA, THAL [2, 6]: 3 down arrows
magnitude class of change in A-Taur, THAL ([2]; adult, THC vs vehicle, trending (p < 0.1)): 1 up arrow
magnitude class of change in 2-AG, MID ([2]; all 3 age groups, THC vs vehicle): 1 down arrow
effect on novel object recognition (novel object recognition): impaired
effect on spatial working memory in the Morris water maze (spatial working memory): significantly disrupted spatial working memory
brain area with highest levels [5]: HIPP
brain area with highest levels [3]: HIPP
brain area with highest levels [4]: HIPP

Source: article PMC5987162 (Biochimica et biophysica acta, 2018)
